Assay results published in ChEMBL document CHEMBL4190357, “New Substituted Cyanoindoline Derivatives as MAP3K14 Kinase Inhibitors for the Treatment of Cancer and Autoimmune Disorders” (ACS Med Chem Lett, 2017).
pIC50: −log10 of the molar value.

How the values were obtained:
[1] = system: JJN-3; assay: Antiproliferative activity against human JJN-3 cells after 96 hrs by CellTiter-Glo luminescence assay; type: functional, cell-based; conditions: JJN-3, 96 h
[2] = system: KMS-12-BM; assay: Antiproliferative activity against human KMS-12-BM cells after 96 hrs by CellTiter-Glo luminescence assay; type: functional, cell-based
[3] = molecular target: T1, Mitogen-activated protein kinase kinase kinase 14 (Homo sapiens, UniProt Q99558); assay: Inhibition of MAP3K14 in human L363 assessed as decrease in IKKalpha phosphorylation level after 2 hrs by sandwich immuno assay
[4] = molecular target: T1, Mitogen-activated protein kinase kinase kinase 14; assay: Inhibition of recombinant human GST-tagged MAP3K14 autophosphorylation after 1 hr by Alpha screen assay

T1 sequence (Q99558 whole entry): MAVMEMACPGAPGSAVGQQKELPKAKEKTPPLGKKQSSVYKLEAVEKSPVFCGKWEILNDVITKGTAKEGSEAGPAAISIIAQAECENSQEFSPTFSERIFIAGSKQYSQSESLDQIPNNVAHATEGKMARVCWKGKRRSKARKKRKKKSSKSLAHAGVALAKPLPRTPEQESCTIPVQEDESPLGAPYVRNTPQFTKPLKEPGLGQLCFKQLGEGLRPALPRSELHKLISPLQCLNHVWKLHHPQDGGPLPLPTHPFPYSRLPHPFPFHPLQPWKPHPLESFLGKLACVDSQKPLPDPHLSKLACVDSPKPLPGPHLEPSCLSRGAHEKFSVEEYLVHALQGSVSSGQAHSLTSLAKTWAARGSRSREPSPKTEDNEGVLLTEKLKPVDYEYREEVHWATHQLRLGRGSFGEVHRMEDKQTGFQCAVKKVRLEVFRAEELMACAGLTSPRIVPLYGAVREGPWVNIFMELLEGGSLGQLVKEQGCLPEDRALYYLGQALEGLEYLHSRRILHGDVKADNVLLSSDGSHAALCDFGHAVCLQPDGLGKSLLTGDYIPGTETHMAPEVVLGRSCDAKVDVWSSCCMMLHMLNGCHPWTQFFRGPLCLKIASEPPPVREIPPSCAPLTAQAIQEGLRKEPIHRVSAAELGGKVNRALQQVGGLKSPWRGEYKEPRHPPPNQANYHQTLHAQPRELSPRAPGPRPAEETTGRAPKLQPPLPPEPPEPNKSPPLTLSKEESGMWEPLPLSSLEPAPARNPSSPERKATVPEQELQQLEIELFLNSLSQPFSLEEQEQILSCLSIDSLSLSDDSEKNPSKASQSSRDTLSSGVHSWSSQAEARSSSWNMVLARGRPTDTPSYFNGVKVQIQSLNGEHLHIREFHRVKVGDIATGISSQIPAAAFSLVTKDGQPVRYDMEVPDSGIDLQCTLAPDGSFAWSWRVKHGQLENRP

Structure (SMILES)	pIC50 [3]	pIC50 [4]	pIC50 [1]	pIC50 [2]
CC(C)(O)COc1ccc(C#N)cc1Nc1nccc(-c2cc(C#N)c3c(c2)[C@@](C)(CO)CN3)n1	7.59	–	6.86	5.31
Cc1cc(F)c(C#N)cc1Nc1nccc(-c2cc(C#N)c3c(c2)[C@@](C)(CO)CN3)n1	8.22	–	6.21	< 5.00
Cc1cc(CCN2CCOCC2)c(C#N)cc1Nc1nccc(-c2cc(C#N)c3c(c2)[C@@](C)(CO)CN3)n1	8.89	–	7.54	< 5.00
C[C@]1(CO)CNc2c(C#N)cc(-c3ccnc(Nc4cc(C#N)ccc4OC4CC4)n3)cc21	7.94	–	7.17	5.91
C[C@]1(CO)CNc2c(C#N)cc(-c3ccnc(Nc4cc(C#N)ccc4CO)n3)cc21	8.20	–	6.62	< 5.00
CNC(=O)c1ccc(C)c(Nc2nccc(-c3cc(C#N)c4c(c3)[C@@](C)(CO)CN4)n2)c1	8.66	8.74	7.07	5.29
[2H]C([2H])(O)c1ccc(C)c(Nc2nccc(-c3cc(C#N)c4c(c3)[C@@](C)(CO)CN4)n2)c1	8.66	–	7.04	< 5.00

More lines, in order of rising pIC50 [3], values ahead:

pIC50 [3]	pIC50 [4]	Structure (SMILES)	pIC50 [1]	pIC50 [2]
7.67	–	CN1CC(F)C(Oc2ccc(C#N)cc2Nc2nccc(-c3cc(C#N)c4c(c3)[C@@](C)(CO)CN4)n2)C1 (some centres not stated)	6.13	< 5.00
7.71	–	CNC(=O)c1ccc(OC(C)C)c(Nc2nccc(-c3cc(C#N)c4c(c3)[C@@](C)(CO)CN4)n2)c1	6.54	< 5.00
8.11	–	Cc1cc(F)c(CO)cc1Nc1nccc(-c2cc(C#N)c3c(c2)[C@@](C)(CO)CN3)n1	6.57	< 5.00
8.18	–	CC(C)Oc1ccc(CO)cc1Nc1nccc(-c2cc(C#N)c3c(c2)[C@@](C)(CO)CN3)n1	6.85	< 5.00
8.92	–	Cc1ccc(C#N)cc1Nc1ncc(F)c(-c2cc(C#N)c3c(c2)[C@@](C)(CO)CN3)n1	6.52	< 5.00
